Laboratory results as given in patent US20040266880A1, “Antipruritics” (priority 2002, published 2004).
Counter-ions that a name gives are not always drawn.

Experiments:
Format in all cases: in vivo
[1] = test system: NC/Nga mice manifesting atopic dermatitis; assay: Test Example 2: effect on the spontaneous, itch-evoked scratching behavior of NC mice (percent itch suppression); settings: for % Inhibition (percent itch suppression): total 24-hr scratching counts before vs after, N = 8
Method: Twenty-week-old NC/Nga mice each weighing about 30 g and manifesting atopic dermatitis were purchased from SLC and subjected to the following experiment. A magnet was buried in both hind paws of each mouse and by detecting its magnetism, the movement of the paws was measured with an itch measuring system (product of Neuroscience). Among the scratching actions, those lasting 1.5 seconds or longer were considered itch-evoked and their number was counted continuously. […] Prostaglandin E2 (PGE2; Cayman Chemical), prostaglandin D2 (PGD2; Cayman Chemical), limaprost (synthetic), sulprostone (synthetic) and beraprost (synthetic) were used as drugs according to the present invention. The subsequent 24-hr itch-evoked scratching behavior was measured and the number of itch-evoked scratchings after drug application was compared with the initial count. The experimental data was processed to calculate the percent itch suppression on the basis of the total 24-hr itch-evoked scratching counts before and after drug application (Table 2). [formula]
For significance testing, the itch-evoked scratching counts that were obtained before and after drug application from individual animals in each group treated with a specific concentration of drug were processed by a paired t-test. Differences with a significance level of 0.5% or less were determined as “significant.”
The same test was repeated using 100% ethanol as a control and, as comparative drugs, dexamethasone (a steroid; Wako Pure Chemical Industries, Ltd.), tacrolimus (FK-506, an immunosuppressive; Fujisawa Pharmaceutical Co., Ltd.) and chlorpheniramine maleate (an antihistamine; Kongo Chemical Co., Ltd.) at the concentrations shown in Table 2 below, provided that chlorpheniramine maleate was administered orally.

[2] = test system: dermatitis manifesting NC mice; assay: Test Example 3: effect on dermatitis manifesting NC mouse models (dermatitis score); settings: 0.01% in 100% ethanol, 200 μl on dorsal back seven times a week for 4 weeks; FIGS. 1 and 2; P<0.05
Method: By suitably modifying a method known to the skilled artisan (Jpn. J. Pharmacol. 76, 175-183 (1998) Jun Hiroi, et al. Effects of Tacrolimus Hydrate (FK-506) Ointment on Spontaneous Dermatitis in NC/Nga Mice), the following test was conducted in order to confirm the antipruritic effect of prostaglandins. (Method) Animals: Four-week old SPF NC mice (male) were purchased from Japan SLC; right after their arrival, the SPF NC mice were kept together with dermatitis manifesting male NC mice (older than 20 weeks) for 2 weeks under the following conditions so as to induce itch-evoked scratching behavior. A group of mice manifesting dermatitis and another group of mice not manifesting dermatitis, each consisting of four animals, were allowed to cohabit in a sawdust cage (34×17×39 cm) and kept in an animal house set at room temperature (23±3° C.) and at a humidity of 55±15% under illumination for 12 hours (from 7:00 am to […]). After 2-wk cohabitation, the purchased mice were taken out of the cage and transferred into another cage, where a group of 8 animals were further kept for 14 weeks until the test. […] The mean value ± standard deviation was calculated from the dermatitis scores for each group, and then statistically processed by t-test to determine statistical significance between each drug administration group and ethanol-treated group.

[3] = test system: NC/Nga mice manifesting atopic dermatitis; assay: Case 2: effects of external use of tacrolimus and dexamethasone on spontaneous itch-evoked scratching behavior in NC/Nga mice; settings: 0.1% in 100% ethanol, 200 μl applied onto head and dorsal skin; paw movements lasting 1.5 seconds or longer; before application: tacrolimus group 600 ± 64, dexamethasone group 567 ± 77
Method: Experimental animals used were 14-week-old NC/Nga male mice, each weighing about 30 g and manifesting atopic dermatitis, and were divided into groups of 6 mice each.
To perform this test, a commercially available itch measuring system (product of Neuroscience) was used. After magnets for scratch measurement were inserted into both hind paws of each of the above animals, the animals were individually placed in a measurement cage and measured for the number of scratchings over 24 hours (the value before drug application). Then, 200 μl each of 0.1% tacrolimus (Fujisawa Pharmaceutical Co., Ltd.) and dexamethasone (Wako Pure Chemical Industries, Ltd.) dissolved in 100% ethanol were applied onto the head and dorsal skin, followed by recording again the number of scratchings over 24 hours (the value after drug application). The control group received 100% ethanol alone. The results obtained were processed to score itch-evoked scratching behavior, assuming that each paw movement lasting 1.5 seconds or longer was counted as one scratch reflex, followed by statistical analysis to determine statistical significance between the values before and after drug application.

[4] = test system: NC/Nga mice manifesting atopic dermatitis; assay: Test Example 1: effect on the spontaneous, itch-evoked scratching behavior of NC mice; settings: for % Occurrence of scratching behavior: 0.1% in 100% ethanol, 0.2 ml/mouse on dorsal skin, count before drug application set to 100%, scratchings 1.5 seconds or longer, N = 6
Method: Twenty-week-old NC/Nga mice each weighing about 30 g and manifesting atopic dermatitis were purchased from SLC and subjected to the following experiment. A magnet was buried in both hind paws of each mouse and by detecting its magnetism, the movement of the paws was measured with an itch measuring system (product of Neuroscience). Among the scratching actions, those lasting 1.5 seconds or longer were considered itch-evoked and their number was counted continuously. […] Since there was a wide range of variation among individual animals, the experimental data was scored assuming that the initial count before drug application was set to 100%. The same test was repeated using 100% ethanol as a control and dexamethasone (a steroid; Wako Pure Chemical Industries, Ltd.) and tacrolimus (an immunosuppressive; Fujisawa Pharmaceutical Co., Ltd.) as comparative drugs.

[5] = concentration 0.01% in 100% ethanol, 0.2 ml/mouse on dorsal skin
[6] = concentration 0.1% in 100% ethanol, 0.2 ml/mouse on dorsal skin
[7] = external application of 0.1%, same extent as dexamethasone and tacrolimus

SMILES	% Inhibition (percent itch suppression) [1, 5] [%]	% Inhibition (percent itch suppression) [1, 6] [%]	% Occurrence of scratching behavior [4] [%]	further results
CC#CCC(C)[C@H](O)/C=C/[C@@H]1[C@H]2c3cccc(CCCC(=O)O)c3O[C@H]2C[C@H]1O (mixture of isomers) [Beraprost, beraprost]	45.6	56.9		effect on dermatitis scores compared to the ethanol-treated group [2]: significant suppressive effect
CN(C)CCC(c1ccc(Cl)cc1)c1ccccn1 (centres unmarked) [Chlorpheniramine, chlorpheniramine maleate]				% Inhibition (percent itch suppression) ([1]; 10 mg/kg, p.o.): 3.56%; suppression of spontaneous itch-evoked scratching behavior (in words) ([1]; administered orally, 10 mg/kg): no suppression
C[C@@H]1C[C@H]2[C@@H]3CCC4=CC(=O)C=C[C@]4(C)[C@@]3(F)[C@@H](O)C[C@]2(C)[C@@]1(O)C(=O)CO [Dexamethasone, dexamethasone]		49.5	50 ± 9	number of scratchings over 24 hours, after drug application [3]: 286 ± 52
CCCC[C@H](C)C[C@H](O)/C=C/[C@H]1[C@H](O)CC(=O)[C@@H]1CCCC/C=C/C(=O)O [Limaprost, limaprost]	79.9			% Inhibition (percent itch suppression) ([1]; concentration 0.001% in 100% ethanol, 0.2 ml/mouse on dorsal skin): 36.2%; effect on dermatitis scores compared to the ethanol-treated group [2]: significant suppressive effect
CCCCC[C@H](O)/C=C/[C@H]1C(=O)C[C@H](O)[C@@H]1C/C=C\CCCC(=O)O [PGD2, prostaglandin D2]	56.3			
CCCCC[C@H](O)/C=C/[C@H]1[C@H](O)CC(=O)[C@@H]1C/C=C\CCCC(=O)O [PGE2, prostaglandin E2]		54.3	46 ± 10	effect on spontaneous itch-evoked scratching behavior (in words) [4, 7]: strongly reduced; effect on spontaneous itch-evoked scratching behavior in NC mice (in words) [1, 7]: strongly reduced
CS(=O)(=O)NC(=O)CCC/C=C\C[C@H]1C(=O)C[C@@H](O)[C@@H]1/C=C/[C@@H](O)COc1ccccc1 [Sulprostone, sulprostone]	24.0			
C=CC[C@@H]1/C=C(\C)C[C@H](C)C[C@H](OC)[C@H]2O[C@@](O)(C(=O)C(=O)N3CCCC[C@H]3C(=O)O[C@H](/C(C)=C/[C@@H]3CC[C@@H](O)[C@H](OC)C3)[C@H](C)[C@@H](O)CC1=O)[C@H](C)C[C@@H]2OC [Tacrolimus, tacrolimus]		55.5	45 ± 8	number of scratchings over 24 hours, after drug application [3]: 267 ± 45
